Literature values in US6645508B1, “Stable L-ascorbic acid composition” (priority 1999, dated 2003).

Tested on: human skin fibroblasts
Details: at concentrations equivalent to L-Ascorbic acid

CCCCCCCCCCCCCCCC(=O)OC[C@H](O)[C@H]1OC(=O)C(O)=C1O [ascorbyl palmitate]
effect on human skin fibroblasts: killed human skin fibroblasts
